The values below come from EPA's ToxValDB 9.5 (doi:10.2903/j.efsa.2008.145r).

By NOAEL is commonly meant the highest dose or exposure tested at which no adverse effect was seen.

Values after ≈ are worked out from the molar mass of the structure shown.

One series deals with Coturnix japonica. Conditions: acute, oral, mortality.
For the next series, the system named is Daphnia magna. Conditions: chronic/long-term; duration: 21 days; reproduction.
In a further series the test system is Apis mellifera. The following applies: acute; duration: 48 hours; oral; unspecified; mortality.
A further series deals with Tagia sp. Conditions: acute; duration: 14 days; mortality.
For another series, the system named is Bibionidae. The following applies: chronic/long-term; duration: 28 days.

Turning to `Cc1cccc(C)c1N(Cn1cccn1)C(=O)CCl` [Metazachlor], the LD50 with Coturnix japonica (diet) was greater than 449 mg/kg-day; in the series on Coturnix japonica, greater than 2000 mg/kg; in the series on Rattus norvegicus (acute, mortality), greater than 2000 mg/kg; with Apis mellifera, greater than 72.2 µg/piece; in the series on Colinus virginianus (acute, oral, mortality), greater than 2000 mg/kg. For the same compound, the NOAEL with Rattus norvegicus (chronic) was 79 mg/kg-day; in the series with Rattus norvegicus (chronic, duration: 2 years, organ weight) it was 8.5 mg/kg-day; in the series with Rattus norvegicus (developmental, development) it was 50 mg/kg-day; in the series on Rattus norvegicus (subchronic, duration: 90 days, oral, organ weight), 21 mg/kg-day. Besides, the NOEC was 0.1 mg/L with Daphnia magna; 2.15 mg/L in the series with Oncorhynchus mykiss (chronic/long-term, duration: 28 days, growth); 7.93 mg/kg in the series on Bibionidae. Also, the LC50 in the series on Oncorhynchus mykiss (acute, duration: 96 hours, mortality) was 8.5 µg/mL (≈ 30.6 µM); in the series with Tagia sp. it was greater than 1000 mg/kg. The compound further yielded an NOEL in the series with Colinus virginianus (reproduction developmental) of 76.5 mg/kg-day.
